Read-outs that look alike come from different tables or passages of the source.
Columns and labels:
[1] = system: HCT-116 colon tumor xenograft; experiment: In vivo antitumor activity, HCT-116 colon tumor xenograft bearing nude mice; design: species or system nu/nu mice; conditions: 30 mg/kg i.p. QOD, positive control
Experimental: The therapeutic effect of 2 was evaluated on HCT-116 colon tumor xenograft bearing nude mice. The oral administration of 2 at doses of 50, 100, or 150 mg/kg bw per day were performed after tumors reached approximately 100 mm^3 and continued for 30 consecutive days. 5-Fluorouracil treatment (30 mg/kg bw, i.p., QOD) was used as a positive control. […] There was a clear dose- and time-dependent inhibitory effect on tumor size in the other two groups, in which at 50 and 150 mg/kg doses the volume of the HCT-116 colon tumor was reduced to 73% and 40% of the control, respectively (Figure 2). The body weight of the mice was recorded prior to dosing every 3 d, and the average body weight of each group is depicted in Figure 3. Otherwise, they were monitored for visible signs of toxicity and behavioral changes 1 h after each administration.
Male nu/nu mice (5 weeks old) from National Laboratory Animal Center (Taipei, Taiwan) were maintained under the procedures and guidelines provided by the Institutional Animal Care and Use Committee of the National Health Research Institutes (Taipei, Taiwan). All experiments were supervised under the Institutional Animal Care and Use Committee, China Medical University, Taichung, Taiwan with a protocol number ([…]-2018-278). HCT-116 colon cancer cells (5 × 10^6 cells per mouse) were suspended in 0.1 mL of Matrigel solution (50% v/v Matrigel in PBS) and inoculated into the mammary fat pads of the mice. When the tumor size reached 100 mm^3, the tumor-bearing mice were randomly divided into four groups for treating with vehicle (5% ethanol and 10% tween 80 in 85% saline, 0.1 mL) and 2 (p.o. 50, 100 and 150 mg/kg/day body weight) respectively. Compounds was administered via oral route daily for 30 days. 5-Fluorouracil-treated group (i.p. 30 mg/kg) is the positive control. Tumor size and mouse body weight were measured once every 3 days, and tumor volume (mm^3) was calculated using the equation: length × (width)^2 × 0.5. At the end of experiments, mice were sacrificed.

HCT-116 = experiment: MTT anti-proliferative assay, HCT-116; type: cell-based; conditions: Homo sapiens
Experimental: (§1) These compounds, along with all newly synthesized compounds, were screened for anti-proliferative activity against the same TNBC and colon cancer cell lines.
(§2) Cell viability was evaluated by measuring the reduction in MTT to yield blue formazan. Cells were cultured in 96-well plates, allowed to attach overnight, and then treated with compounds. After treatment, MTT solution (1 mg/mL) was added to each well, and plates were incubated for another 2 h. Medium was removed, blue formazan was dissolved in DMSO, and the absorbance was read at 570 nm by Multiskan Go spectrophotometer (Thermo Scientific, Madison, WI, USA).

MDA-MB-231 = experiment: MTT anti-proliferative assay, MDA-MB-231; type: cell-based; conditions: Homo sapiens
Experimental: as §1, §2

[2] = 48 h treatment, MTT, mean ± SD of at least three experiments, read-out: IC50 (M)/ 48 h HCT-116
[3] = 48 h treatment, MTT, mean ± SD of at least three experiments, read-out: IC50 (M)/ 48 h MDA-MB-231
[4] = anti-proliferative screening, read-out: IC50 HCT-116
[5] = anti-proliferative screening, read-out: IC50 MDA-MB-231

Structure (SMILES) | tumor-growth inhibition [1] | IC50 (HCT-116; [2]) | IC50 (MDA-MB-231; [3]) | melting point | IC50 (HCT-116; [4]) | IC50 (MDA-MB-231; [5])
O=c1[nH]cc(F)c(=O)[nH]1 [5-Fluorouracil, reference compound] | 40% |  |  |  |  | 
CCC(CC)(C(=O)/C=C/c1ccc(OC(=O)C(C)(CO)CO)c(OC)c1)C(=O)/C=C/c1ccc(OC(=O)C(C)(CO)CO)c(OC)c1 [Compound 3] |  | 1.93e-06 ± 1e-08 M | 3.02e-06 ± 1.5e-07 M |  |  | 
CCC(CC)(C(=O)/C=C/c1ccc(O)c(OC)c1)C(=O)/C=C/c1ccc(O)c(OC)c1 [Compound 3m, (1E,6E)-4,4-Diethyl-1,7-bis(4-hydroxy-3-methoxyphenyl)hepta-1,6-diene-3,5-dione] |  | 8.18e-06 ± 5.7e-07 M | 9.12e-06 ± 4e-07 M | 114 to 115 °C |  | 
COc1cc(/C=C/C(=O)C(Cc2ccccc2)(Cc2ccccc2)C(=O)/C=C/c2ccc(OC(=O)C(C)(CO)CO)c(OC)c2)ccc1OC(=O)C(C)(CO)CO [Compound 4] |  | 7.66e-06 ± 6.1e-07 M | 2.45e-06 ± 2.4e-07 M |  |  | 
COc1cc(/C=C/C(=O)C(Cc2ccccc2)(Cc2ccccc2)C(=O)/C=C/c2ccc(O)c(OC)c2)ccc1O [Compound 4m, (1E,6E)-4,4-Dibenzyl-1,7-bis(4-hydroxy-3-methoxyphenyl)hepta-1,6-diene-3,5-dione] |  | 9.4e-06 ± 2e-08 M | 3.65e-05 ± 1.66e-06 M | 134 to 135 °C |  | 
C#CCC(CC#C)(C(=O)/C=C/c1ccc(OC(=O)C(C)(CO)CO)c(OC)c1)C(=O)/C=C/c1ccc(OC(=O)C(C)(CO)CO)c(OC)c1 [Compound 5] |  | 5.81e-06 ± 2.3e-07 M | 5.87e-06 ± 1e-07 M |  |  | 
C#CCC(CC#C)(C(=O)/C=C/c1ccc(O)c(OC)c1)C(=O)/C=C/c1ccc(O)c(OC)c1 [Compound 5m, (1E,6E)-1,7-bis(4-Hydroxy-3-methoxyphenyl)-4,4-di(prop-2-yn-1-yl)hepta-1,6-diene-3,5-dione] |  | 1.38e-06 ± 6e-08 M | 3.1e-06 ± 1.5e-07 M |  |  | 
C=CCC(CC=C)(C(=O)/C=C/c1ccc(OC(=O)C(C)(CO)CO)c(OC)c1)C(=O)/C=C/c1ccc(OC(=O)C(C)(CO)CO)c(OC)c1 [Compound 6, [(1E,6E)-4,4-Diallyl-3,5-dioxohepta-1,6-diene-1,7-diyl]bis(2-methoxy-4,1-phenylene) bis[3-hydroxy-2-(hydroxymethyl)-2-methylpropanoate]] |  | 9.2e-07 ± 6e-08 M | 3.13e-06 ± 5.4e-07 M | 195 to 197 °C |  | 
C=CCC(CC=C)(C(=O)/C=C/c1ccc(O)c(OC)c1)C(=O)/C=C/c1ccc(O)c(OC)c1 [Compound 6m, (1E,6E)-4,4-Diallyl-1,7-bis(4-hydroxy-3-methoxyphenyl)hepta-1,6-diene-3,5-dione] |  | 4.4e-06 ± 5.3e-07 M | 6.88e-06 ± 3.6e-07 M |  |  | 
COc1cc(/C=C/C(=O)C(COC(C)=O)(COC(C)=O)C(=O)/C=C/c2ccc(OC(=O)C(C)(CO)CO)c(OC)c2)ccc1OC(=O)C(C)(CO)CO [Compound 10, [(1E,6E)-4,4-bis(Acetoxymethyl)-3,5-dioxohepta-1,6-diene-1,7-diyl]bis(2-methoxy-4,1-phenylene) bis[3-hydroxy-2-(hydroxymethyl)-2-methylpropanoate]] |  | 6.53e-06 ± 1e-08 M | 6.55e-06 ± 4e-08 M | 194 to 196 °C |  | 
COCC(COC)(C(=O)/C=C/c1ccc(OC(=O)C(C)(CO)CO)c(OC)c1)C(=O)/C=C/c1ccc(OC(=O)C(C)(CO)CO)c(OC)c1 [Compound 11, [(1E,6E)-4,4-bis(Methoxymethyl)-3,5-dioxohepta-1,6-diene-1,7-diyl]bis(2-methoxy-4,1-phenylene) bis[3-hydroxy-2-(hydroxymethyl)-2-methylpropanoate]] |  | 6.91e-05 ± 3.11e-06 M | 8.49e-05 ± 1.67e-06 M | 187 to 188 °C |  | 
COc1ccc(/C=C/C(=O)C(CO)(CO)C(=O)/C=C/c2ccc(OC)c(OC)c2)cc1OC [Compound 12, (1E,6E)-1,7-bis(3,4-Dimethoxyphenyl)-4,4-bis(hydroxymethyl)hepta-1,6-diene-3,5-dione] |  | 5.8e-05 ± 6e-07 M | 5.35e-05 ± 3.45e-06 M | 174 to 176 °C |  | 
COc1ccc(/C=C/C(=O)C(COC(=O)C(C)(CO)CO)(COC(=O)C(C)(CO)CO)C(=O)/C=C/c2ccc(OC)c(OC)c2)cc1OC [Compound 14, 2,2-bis[(E)-3-(3,4-Dimethoxyphenyl)acryloyl]propane-1,3-diylbis[3-hydroxy-2-(hydroxymethyl)-2-methylpropanoate]] |  | 4.01e-05 ± 1.61e-06 M | 5.74e-05 ± 2.06e-06 M | > 300 °C |  | 
CCCC(CCC)(C(=O)/C=C/c1ccc(O)c(OC)c1)C(=O)/C=C/c1ccc(O)c(OC)c1 [Compound 15, (1E,6E)-1,7-bis(4-Hydroxy-3-methoxyphenyl)-4,4-dipropylhepta-1,6-diene-3,5-dione] |  | 1.07e-05 ± 1.63e-06 M | 1.82e-05 ± 5.3e-07 M | 137 to 139 °C |  | 
CCCCC(CCCC)(C(=O)/C=C/c1ccc(O)c(OC)c1)C(=O)/C=C/c1ccc(O)c(OC)c1 [Compound 16, (1E,6E)-4,4-Dibutyl-1,7-bis(4-hydroxy-3-methoxyphenyl)hepta-1,6-diene-3,5-dione] |  | 6.7e-05 ± 3.18e-06 M | > 0.0001 M | 144 to 146 °C |  | 
COc1cc(/C=C/C(=O)C(C)(C)C(=O)CCc2ccc(O)c(OC)c2)ccc1O [Compound 18, (E)-1,7-bis(4-Hydroxy-3-methoxyphenyl)-4,4-dimethylhept-1-ene-3,5-dione] |  |  |  |  | 9.64e-06 ± 2.1e-07 M | 3.648e-05 ± 3.4e-07 M
COc1cc(CCC(=O)C(C)(C)C(=O)CCc2ccc(O)c(OC)c2)ccc1O [Compound 19, 1,7-bis(4-Hydroxy-3-methoxyphenyl)-4,4-dimethylheptane-3,5-dione] |  |  |  |  | ≥ 0.0001 M | ≥ 0.0001 M
COc1cc(CCC(=O)C(C)(C)C(O)CCc2ccc(O)c(OC)c2)ccc1O (stereo not drawn) [Compound 20, 5-hydroxy-1,7-bis(4-hydroxy-3-methoxyphenyl)-4,4-dimethylheptan-3-one] |  |  |  |  | ≥ 0.0001 M | ≥ 0.0001 M
COc1cc(CCC(O)C(C)(C)C(O)CCc2ccc(O)c(OC)c2)ccc1O (stereo not drawn) [Compound 21, 1,7-bis(4-Hydroxy-3-methoxyphenyl)-4,4-dimethylheptane-3,5-diol] |  |  |  |  | ≥ 0.0001 M | ≥ 0.0001 M
COc1cc(/C=C/C(=O)CC(=O)/C=C/c2ccc(O)c(OC)c2)ccc1O [Curcumin, (1E,6E)-1,7-bis(4-hydroxy-3-methoxyphenyl)hepta-1,6-diene-3,5-dione] |  | 2.63e-05 ± 1.38e-06 M | 2.21e-05 ± 2.97e-06 M |  |  | 

From PMC7037731, “Synthesis, Anticancer Activity, and Preliminary Pharmacokinetic Evaluation of 4,4-Disubstituted Curcuminoid 2,2-bis(Hydroxymethyl)Propionate Derivatives” (Molecules, 2020)
